# Measured values reported in US7410755B2, “ADP detection using an enzyme-coupled reaction” (Discoverx, priority 2005, dated 2008).
# Target: Protein Kinase A (PKA) (Homo sapiens, UniProt P17612)
# Settings: read-out: Km of ATP for PKA; Kemptide substrate, PKA (Upstate), 30° C. for 1 hour; fitted to Michaelis-Menten equation; FIG. 4
# Excerpt: In this second example, kinase reaction, the activity of PKA is characterized further. In this experiment, the kinetics of ATP on PKA activity was examined by measuring the rate of kinase activity at varying concentration of ATP. The results of this assay were fitted to the Michaelis-Menten equation so that the Km (Michaelis-Menten constant) of ATP for PKA could be determined.
# To perform a protein kinase assay using the ADP Detection Assay, the assay reagents were thawed at room temperature for several hours.
# Low salt assay buffer (LS ASB) was used to dilute all reagents in the kinase reaction and consisted of 15 mM Hepes, 20 mM NaCl, 1 mM EGTA, 0.02% Tween 20, 10 mM MgCl2, 0.1% bovine gamma globulin at pH 7.4. Substrate reagent was generated containing 800 μM Kemptide substrate. […] PKA kinase (Upstate) was diluted to give a reagent of 20 ng/ml. […]
# To detect the generation of ADP as a result of kinase activity, 10 μ ADP Substrate Reagent was added followed immediately by 20 μl of ADP Enzyme Reagent. […] Assay signal was measured with a Fluorocount® fluorescent plate reader (Packard) using 0.1 second integration with excitation and emission wavelengths at 530 and 590 nm respectively and a PMT voltage of 750 Volts.
# The data was converted by dividing the signal measured by 60 to obtain the enzyme rate in RFU per minute. […]
smiles,measurement,value
Nc1ncnc2c1ncn2[C@@H]1O[C@H](COP(=O)(O)OP(=O)(O)OP(=O)(O)O)[C@@H](O)[C@H]1O [ATP],Km,22.3 µM
